Measured values taken from ChEMBL document CHEMBL5543127, “Design, Synthesis, and Biological Evaluation of 2-Phenoxyalkylhydrazide Benzoxazole Derivatives as Quorum Sensing Inhibitors with Strong Antibiofilm Effect” (J Med Chem, 2024).
In brackets after ≈: the same amount, converted by molar mass. Activity calls are given as the source filed them. No cut-off for these calls is given here.

Key:
Pseudomonas aeruginosa [1] = assay: Anti-microbial activity against penicillin-susceptible Pseudomonas aeruginosa 27853 incubated for 20 hrs By CLSI based micro-dilution method; assay type: functional
[2] = Inhibition of quorum sensing system in Pseudomonas aeruginosa PAO1 at logarithmic growth period assessed as inhibition of pyocyanin production at 102.4 microg/ml incubated for 18 hrs by pyocyanin inhibition assay; settings: dose 102.4 µg/ml
Bacillus pumilus = assay: Anti-microbial activity against Bacillus pumilus CMCC63202 incubated for 20 hrs By CLSI based micro-dilution method; assay type: functional
Escherichia coli = assay: Anti-microbial activity against penicillin-susceptible Escherichia coli ATCC25922 incubated for 20 hrs By CLSI based micro-dilution method; assay type: functional
Pseudomonas aeruginosa [3] = assay: Inhibition of protease in logarithmic growth phase Pseudomonas aeruginosa PAO1 assessed as inhibition rate at 102.4 microg/ml measured after 32 hrs; settings: dose 102.4 µg/ml
Staphylococcus aureus [4] = assay: Anti-microbial activity against erythromycin-susceptible Staphylococcus aureus ATCC25923 incubated for 20 hrs By CLSI based micro-dilution method; assay type: functional
Bacillus subtilis = assay: Anti-microbial activity against Bacillus subtilis ATCC9372 incubated for 20 hrs By CLSI based micro-dilution method; assay type: functional
Pseudomonas aeruginosa [5] = assay: Anti-microbial activity against Pseudomonas aeruginosa PAO1 incubated for 20 hrs By CLSI based micro-dilution method; assay type: functional
Staphylococcus aureus [6] = assay: Anti-microbial activity against methicillin-resistant Staphylococcus aureus ATCC43300 incubated for 20 hrs By CLSI based micro-dilution method; assay type: functional
Pseudomonas aeruginosa [7] = assay: Antibacterial activity against Pseudomonas aeruginosa PAO1 at logarithmic growth phase assessed as growth inhibition at 153.6 microg/ml measured upto 25 hrs by growth curve assay; assay type: functional, organism-based; settings: dose 153.6 µg/ml
Pseudomonas aeruginosa [8] = assay: Antibacterial activity against Pseudomonas aeruginosa 27853 at logarithmic growth phase assessed as growth inhibition at 153.6 microg/ml measured upto 25 hrs by growth curve assay; assay type: functional, organism-based; settings: dose 153.6 µg/ml
Pseudomonas aeruginosa [9] = assay: Induction of anti-bacterial effect in Pseudomonas aeruginosa PAO1 assessed as synergistic effect by measuring reduction in bacterial survival in presence of clarithromycin measured after 24 hrs incubation; assay type: functional, organism-based; settings: dose 8-128 µg/ml
Pseudomonas aeruginosa [10] = assay: Induction of anti-bacterial effect in Pseudomonas aeruginosa PAO1 assessed as synergistic effect by measuring reduction in bacterial survival in presence of ciprofloxacin measured after 24 hrs incubation; assay type: functional, organism-based; settings: dose 8-128 µg/ml
Pseudomonas aeruginosa [11] = assay: Antibiofilm activity against logarithmic growth phase Pseudomonas aeruginosa PAO1 assessed as inhibition of biofilm formation at 16 microg/ml incubated for 20 hrs by crystal violet staining based analysis; assay type: functional; settings: for inhibition: dose 16.0 µg/ml
Pseudomonas aeruginosa [12] = assay: Antibiofilm activity against logarithmic growth phase Pseudomonas aeruginosa PAO1 assessed as inhibition of biofilm formation at 32 microg/ml incubated for 20 hrs by crystal violet staining based analysis; assay type: functional
Pseudomonas aeruginosa [13] = assay: Anti-virulence activity against logarithmic growth phase Pseudomonas aeruginosa PAO1 assessed as inhibition of Rhamnolipid production at 102.4 microg/ml measured after 24 hrs; assay type: functional

O=C(CCCOc1ccc(F)cc1)NNc1nc2ccccc2o1
MIC (Pseudomonas aeruginosa [1]): 128 µg/mL (≈ 389 µM) | inhibition [2]: inactive | MIC (Bacillus pumilus): 256 µg/mL (≈ 777 µM) | MIC (Escherichia coli): > 512 µg/mL | inhibition (Pseudomonas aeruginosa [3]): 30% | MIC (Staphylococcus aureus [4]): 256 µg/mL (≈ 777 µM) | MIC (Bacillus subtilis): 512 µg/mL (≈ 1550 µM) | MIC (Pseudomonas aeruginosa [5]): > 512 µg/mL | MIC (Staphylococcus aureus [6]): 256 µg/mL (≈ 777 µM)

Cn1/c(=N/NC(=O)c2ccccc2F)sc2ccccc21
MIC (Pseudomonas aeruginosa [1]): > 512 µg/mL | MIC (Bacillus pumilus): > 512 µg/mL | MIC (Escherichia coli): > 512 µg/mL | inhibition (Pseudomonas aeruginosa [3]): > 20% | MIC (Staphylococcus aureus [4]): > 512 µg/mL | MIC (Bacillus subtilis): > 512 µg/mL | MIC (Pseudomonas aeruginosa [5]): > 512 µg/mL | MIC (Staphylococcus aureus [6]): > 512 µg/mL | Activity (Pseudomonas aeruginosa [7]): inactive | Activity (Pseudomonas aeruginosa [8]): inactive

Cc1cccc2sc(NNC(=O)CCCCOc3ccc(F)cc3)nc12
MIC (Pseudomonas aeruginosa [1]): > 512 µg/mL | inhibition [2]: Active | MIC (Bacillus pumilus): 512 µg/mL (≈ 1370 µM) | Activity (Pseudomonas aeruginosa [9]): Dose-Dependent Effect | MIC (Escherichia coli): > 512 µg/mL | inhibition (Pseudomonas aeruginosa [3]): > 20% | Activity (Pseudomonas aeruginosa [10]): Dose-Dependent Effect | MIC (Staphylococcus aureus [4]): 512 µg/mL (≈ 1370 µM) | MIC (Bacillus subtilis): 512 µg/mL (≈ 1370 µM) | MIC (Pseudomonas aeruginosa [5]): > 512 µg/mL | MIC (Staphylococcus aureus [6]): 512 µg/mL (≈ 1370 µM) | inhibition (Pseudomonas aeruginosa [11]): Active | Activity (Pseudomonas aeruginosa [7]): inactive | Activity (Pseudomonas aeruginosa [8]): inactive | inhibition at 32 µg/mL (Pseudomonas aeruginosa [12]): > 25.4%

O=C1C=C(Br)/C(=C\Br)O1
MIC (Pseudomonas aeruginosa [1]): 256 µg/mL (≈ 1010 µM) | MIC (Bacillus pumilus): 256 µg/mL (≈ 1010 µM) | MIC (Escherichia coli): 256 µg/mL (≈ 1010 µM) | MIC (Staphylococcus aureus [4]): 32 µg/mL (≈ 126 µM) | MIC (Bacillus subtilis): 64 µg/mL (≈ 252 µM) | MIC (Pseudomonas aeruginosa [5]): 128 µg/mL (≈ 504 µM) | inhibition at 102.4 µg/mL (Pseudomonas aeruginosa [13]): 44.9% | MIC (Staphylococcus aureus [6]): 128 µg/mL (≈ 504 µM)

Cn1/c(=N/NC(=O)c2ccc(F)cc2)sc2ccccc21
MIC (Pseudomonas aeruginosa [1]): > 512 µg/mL | MIC (Bacillus pumilus): > 512 µg/mL | MIC (Escherichia coli): > 512 µg/mL | inhibition (Pseudomonas aeruginosa [3]): > 20% | MIC (Staphylococcus aureus [4]): > 512 µg/mL | MIC (Bacillus subtilis): > 512 µg/mL | MIC (Pseudomonas aeruginosa [5]): > 512 µg/mL | MIC (Staphylococcus aureus [6]): > 512 µg/mL | Activity (Pseudomonas aeruginosa [7]): inactive | Activity (Pseudomonas aeruginosa [8]): inactive

O=C(CCCCOc1ccc(F)cc1)NNc1nc2ccccc2s1
MIC (Pseudomonas aeruginosa [1]): > 512 µg/mL | inhibition [2]: Active | MIC (Bacillus pumilus): > 512 µg/mL | MIC (Escherichia coli): > 512 µg/mL | MIC (Staphylococcus aureus [4]): > 512 µg/mL | MIC (Bacillus subtilis): > 512 µg/mL | MIC (Pseudomonas aeruginosa [5]): > 512 µg/mL | MIC (Staphylococcus aureus [6]): > 512 µg/mL | Activity (Pseudomonas aeruginosa [7]): inactive | Activity (Pseudomonas aeruginosa [8]): inactive

Clc1ccc(/C=N/Nc2nc3ccccc3o2)cc1
MIC (Pseudomonas aeruginosa [1]): > 512 µg/mL | inhibition [2]: inactive | MIC (Bacillus pumilus): > 512 µg/mL | MIC (Escherichia coli): > 512 µg/mL | inhibition (Pseudomonas aeruginosa [3]): 21.4% | MIC (Staphylococcus aureus [4]): 64 µg/mL (≈ 236 µM) | MIC (Bacillus subtilis): 512 µg/mL (≈ 1880 µM) | MIC (Pseudomonas aeruginosa [5]): > 512 µg/mL | MIC (Staphylococcus aureus [6]): 512 µg/mL (≈ 1880 µM) | Activity (Pseudomonas aeruginosa [7]): inactive | Activity (Pseudomonas aeruginosa [8]): inactive

O=C(COc1ccc(Cl)cc1)NNc1nc2ccccc2o1
MIC (Pseudomonas aeruginosa [1]): 512 µg/mL (≈ 1610 µM) | inhibition [2]: 46.9% | MIC (Bacillus pumilus): > 512 µg/mL | Activity (Pseudomonas aeruginosa [9]): Dose-Dependent Effect | MIC (Escherichia coli): > 512 µg/mL | inhibition (Pseudomonas aeruginosa [3]): 10% | Activity (Pseudomonas aeruginosa [10]): Dose-Dependent Effect | MIC (Staphylococcus aureus [4]): 512 µg/mL (≈ 1610 µM) | MIC (Bacillus subtilis): 512 µg/mL (≈ 1610 µM) | MIC (Pseudomonas aeruginosa [5]): > 512 µg/mL | MIC (Staphylococcus aureus [6]): 256 µg/mL (≈ 806 µM) | inhibition at 16 µg/mL (Pseudomonas aeruginosa [11]): > 50% | Activity (Pseudomonas aeruginosa [7]): inactive | Activity (Pseudomonas aeruginosa [8]): inactive | inhibition at 32 µg/mL (Pseudomonas aeruginosa [12]): > 25.4%

O=C(COc1cccc(F)c1)NNc1nc2ccccc2o1
MIC (Pseudomonas aeruginosa [1]): 512 µg/mL (≈ 1700 µM) | inhibition [2]: inactive | MIC (Bacillus pumilus): > 512 µg/mL | MIC (Escherichia coli): > 512 µg/mL | inhibition (Pseudomonas aeruginosa [3]): 10% | MIC (Staphylococcus aureus [4]): 512 µg/mL (≈ 1700 µM) | MIC (Bacillus subtilis): 512 µg/mL (≈ 1700 µM) | MIC (Pseudomonas aeruginosa [5]): 512 µg/mL (≈ 1700 µM) | MIC (Staphylococcus aureus [6]): > 512 µg/mL | Activity (Pseudomonas aeruginosa [7]): inactive | Activity (Pseudomonas aeruginosa [8]): inactive

O=C(CCCOc1cccc(F)c1)NNc1nc2ccccc2o1
MIC (Pseudomonas aeruginosa [1]): 512 µg/mL (≈ 1550 µM) | inhibition [2]: inactive | MIC (Bacillus pumilus): > 512 µg/mL | MIC (Escherichia coli): > 512 µg/mL | inhibition (Pseudomonas aeruginosa [3]): 30% | MIC (Staphylococcus aureus [4]): > 512 µg/mL | MIC (Bacillus subtilis): > 512 µg/mL | MIC (Pseudomonas aeruginosa [5]): > 512 µg/mL | MIC (Staphylococcus aureus [6]): > 512 µg/mL

Cn1/c(=N/NC(=O)c2cccc(Cl)c2)sc2ccccc21
MIC (Pseudomonas aeruginosa [1]): > 512 µg/mL | inhibition [2]: 40.1% | MIC (Bacillus pumilus): > 512 µg/mL | MIC (Escherichia coli): > 512 µg/mL | inhibition (Pseudomonas aeruginosa [3]): > 20% | MIC (Staphylococcus aureus [4]): > 512 µg/mL | MIC (Bacillus subtilis): > 512 µg/mL | MIC (Pseudomonas aeruginosa [5]): > 512 µg/mL | MIC (Staphylococcus aureus [6]): > 512 µg/mL | inhibition (Pseudomonas aeruginosa [11]): Active | Activity (Pseudomonas aeruginosa [7]): inactive | Activity (Pseudomonas aeruginosa [8]): inactive | inhibition at 32 µg/mL (Pseudomonas aeruginosa [12]): > 25.4%

COc1ccc(OCCCCCC(=O)NNc2nc3ccccc3o2)cc1
MIC (Pseudomonas aeruginosa [1]): 512 µg/mL (≈ 1390 µM) | inhibition [2]: inactive | MIC (Bacillus pumilus): 512 µg/mL (≈ 1390 µM) | MIC (Escherichia coli): > 512 µg/mL | MIC (Staphylococcus aureus [4]): 256 µg/mL (≈ 693 µM) | MIC (Bacillus subtilis): 512 µg/mL (≈ 1390 µM) | MIC (Pseudomonas aeruginosa [5]): > 512 µg/mL | MIC (Staphylococcus aureus [6]): 512 µg/mL (≈ 1390 µM)

O=[N+]([O-])c1ccccc1/C=N/Nc1nc2ccccc2o1
MIC (Pseudomonas aeruginosa [1]): > 512 µg/mL | inhibition [2]: inactive | MIC (Bacillus pumilus): 256 µg/mL (≈ 907 µM) | MIC (Escherichia coli): > 512 µg/mL | MIC (Staphylococcus aureus [4]): 128 µg/mL (≈ 453 µM) | MIC (Bacillus subtilis): 512 µg/mL (≈ 1810 µM) | MIC (Pseudomonas aeruginosa [5]): 256 µg/mL (≈ 907 µM) | MIC (Staphylococcus aureus [6]): 256 µg/mL (≈ 907 µM)
